Legend:
[1] = test system: HIV-IIIb; assay: Test A: Antiviral Assay in MT4 Cells; format: cell-based, HIV-1; settings: Human immunodeficiency virus 1, IIIB, MT4, 120 h; for inhibition at 0.2 µM: read-out: % inhibition at 0.2 μM; for inhibition at 2 µM: read-out: % inhibition at 2 μM
Description: Test A: Antiviral Assay in MT4 Cells
MT-4 cells were next mixed with HIV-IIIb at an m.o.i of 0.003 for 1 hour, after which time 35 μL of virus/cell mixture (2000 cells) was immediately added to each well containing 40 μL of diluted compound. The plates were then incubated at 37° C. for 5 days. […] Cell lysis was carried out by incubating at room temperature for 10 min and then chemiluminescence was read.

[2] = Test B: Cytotoxicity Assay; format: cell-based; settings: human, uninfected MT-4 cells, same protocol as Test A
In short: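 Uninfected MT-4 cells (2000 per well) incubated with diluted compound at 37° C. for 5 days, following the antiviral protocol without HIV-IIIb.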

Row | Structure (SMILES) | inhibition at 0.2 µM [1] [%] | inhibition at 2 µM [1] [%] | CC50 at 5 days [2] [µM]
1 | CN1CCN(S(=O)(=O)Nc2nn(C)c3c(-c4ccc(C#CC(C)(C)O)nc4[C@H](Cc4cc(F)cc(F)c4)NC(=O)Cn4nc(C(F)(F)F)c5c4C(F)(F)[C@@H]4C[C@H]54)cccc23)CC1 [Compound 56F, 2-((3bS,4aR)-5,5-difluoro-3-(trifluoromethyl)-3b,4,4a,5-tetrahydro-1H-cyclopropa[3,4]cyclopenta[1,2-c]pyrazol-1-yl)-N—((S)-2-(3,5-difluorophenyl)-1-(6-(3-hydroxy-3-methylbut-1-yn-1-yl)-3-(1-methyl-3-(4-methylpiperazine-1-sulfonamido)-1H-indazol-7-yl)pyridin-2-yl)ethyl)acetamide] | 97 | 97 | 19
2 | Cn1nc(NS(C)(=O)=O)c2c(C(F)F)ccc(-c3ccc(C#CC(C)(C)O)nc3[C@H](Cc3cc(F)cc(F)c3)NC(=O)Cn3nc(C(F)F)c4c3C(F)(F)[C@@H]3C[C@H]43)c21 [Compound 155I, N—((S)-1-(3-(4-(difluoromethyl)-1-methyl-3-(methylsulfonamido)-1H-indazol-7-yl)-6-(3-hydroxy-3-methylbut-1-yn-1-yl)pyridin-2-yl)-2-(3,5-difluorophenyl)ethyl)-2-((3b-S,4aR)-3-(difluoromethyl)-5,5-difluoro-3b,4,4a,5-tetrahydro-1H-cyclopropa[3,4]cyclopenta[1,2-c]pyrazol-1-yl)acetamide] | 99 | 99 | 26.8
3 | CC(C)(O)C#Cc1ccc(-c2cnc3[nH]ccc3c2F)c([C@H](Cc2cc(F)cc(F)c2)NC(=O)Cn2nc(C(F)(F)F)c3c2C(F)(F)[C@@H]2C[C@H]32)n1 [Compound 36C, 2-((3bS,4aR)-5,5-difluoro-3-(trifluoromethyl)-3b,4,4a,5-tetrahydro-1H-cyclopropa[3,4]cyclopenta[1,2-c]pyrazol-1-yl)-N—((S)-2-(3,5-difluorophenyl)-1-(3-(4-fluoro-1H-pyrrolo[2,3-b]pyridin-5-yl)-6-(3-hydroxy-3-methylbut-1-yn-1-yl)pyridin-2-yl)ethyl)acetamide] | 88 | 92 | 3.15
4 | Cn1nc(NS(C)(=O)=O)c2c(Cl)ccc(-c3ccc(C#CC(C)(C)C)nc3[C@H](Cc3cc(F)cc(F)c3)NC(=O)Cn3nc(C(F)F)c4c3C(F)(F)[C@@H]3C[C@H]43)c21 [Compound 131E, N—((S)-1-(3-(4-chloro-1-methyl-3-(methylsulfonamido)-1H-indazol-7-yl)-6-(3,3-dimethylbut-1-yn-1-yl)pyridin-2-yl)-2-(3,5-difluorophenyl)ethyl)-2-((3b-S,4aR)-3-(difluoromethyl)-5,5-difluoro-3b,4,4a,5-tetrahydro-1H-cyclopropa[3,4]cyclopenta[1,2-c]pyrazol-1-yl)acetamide] | 95 | 96 | 22.5
5 | Cc1nc(NS(C)(=O)=O)c2cccc(-c3ccc(C#CC(C)(C)O)nc3[C@H](Cc3cc(F)cc(F)c3)NC(=O)Cn3nc(C(F)F)c4c3C(F)(F)[C@@H]3C[C@H]43)n12 [Compound 120H, 2-((3b-S,4aR)-3-(difluoromethyl)-5,5-difluoro-3b,4,4a,5-tetrahydro-1H-cyclopropa[3,4]cyclopenta[1,2-c]pyrazol-1-yl)-N—((S)-2-(3,5-difluorophenyl)-1-(6-(3-hydroxy-3-methylbut-1-yn-1-yl)-3-(3-methyl-1-(methylsulfonamido)imidazo[1,5-a]pyridin-5-yl)pyridin-2-yl)ethyl)acetamide] | 51 | 88 | 11.7
6 | CN(C)c1nn(CC(=O)N[C@@H](Cc2cc(F)cc(F)c2)c2nc(C#CC(C)(C)O)ccc2-c2ccc(Cl)c3c(NS(C)(=O)=O)nn(C)c23)c2c1[C@H]1C[C@H]1C2(F)F [Compound 161, N—((S)-1-(3-(4-chloro-1-methyl-3-(methylsulfonamido)-1H-indazol-7-yl)-6-(3-hydroxy-3-methylbut-1-yn-1-yl)pyridin-2-yl)-2-(3,5-difluorophenyl)ethyl)-2-((3b-S,4aR)-3-(dimethylamino)-5,5-difluoro-3b,4,4a,5-tetrahydro-1H-cyclopropa[3,4]cyclopenta[1,2-c]pyrazol-1-yl)acetamide] | 84 | 84 | 21.8
7 | CCOC(=O)c1nn(CC(=O)N[C@@H](Cc2cc(F)cc(F)c2)c2nc(C#CC(C)(C)O)ccc2-c2ccc(Cl)c3c(NS(C)(=O)=O)nn(C)c23)c2c1[C@H]1C[C@H]1C2(F)F [Compound 158G, (3bS,4aR)-ethyl 1-(2-(((S)-1-(3-(4-chloro-1-methyl-3-(methylsulfonamido)-1H-indazol-7-yl)-6-(3-hydroxy-3-methylbut-1-yn-1-yl)pyridin-2-yl)-2-(3,5-difluorophenyl)ethyl)amino)-2-oxoethyl)-5,5-difluoro-3b,4,4a,5-tetrahydro-1H-cyclopropa[3,4]cyclopenta[1,2-c]pyrazole-3-carboxylate] | 71 | 71 | 26.7
8 | CC(C)(O)C#Cc1ccc(-c2ccc(Cl)c3c(NS(C)(=O)=O)n[nH]c23)c([C@H](Cc2cc(F)cc(F)c2)NC(=O)Cn2nc(C(F)F)c3c2C(F)(F)[C@@H]2C[C@H]32)n1 [Compound 108C, N—((S)-1-(3-(4-chloro-3-(methylsulfonamido)-1H-indazol-7-yl)-6-(3-hydroxy-3-methylbut-1-yn-1-yl)pyridin-2-yl)-2-(3,5-difluorophenyl)ethyl)-2-((3b-S,4aR)-3-(difluoromethyl)-5,5-difluoro-3b,4,4a,5-tetrahydro-1H-cyclopropa[3,4]cyclopenta[1,2-c]pyrazol-1-yl)acetamide] | 94 | 94 | > 53.1
9 | Cn1nc(NS(C)(=O)=O)c2c(Cl)ccc(-c3ccc(C#CC(C)(C)O)nc3[C@H](Cc3cc(F)cc(F)c3)NC(=O)Cn3ncc4c3C(F)(F)[C@@H]3C[C@H]43)c21 [Compound 150, N—((S)-1-(3-(4-chloro-1-methyl-3-(methylsulfonamido)-1H-indazol-7-yl)-6-(3-hydroxy-3-methylbut-1-yn-1-yl)pyridin-2-yl)-2-(3,5-difluorophenyl)ethyl)-2-((3bS,4aR)-5,5-difluoro-3b,4,4a,5-tetrahydro-1H-cyclopropa[3,4]cyclopenta[1,2-c]pyrazol-1-yl)acetamide] | 87 | 87 | 28.9
10 | CCC(O)(C#Cc1ccc(-c2cccc3c(NS(C)(=O)=O)nn(C)c23)c([C@H](Cc2cc(F)cc(F)c2)NC(=O)Cn2nc(C(F)(F)F)c3c2C(F)(F)[C@@H]2C[C@H]32)n1)CC [Compound 66, 2-((3bS,4aR)-5,5-difluoro-3-(trifluoromethyl)-3b,4,4a,5-tetrahydro-1H-cyclopropa[3,4]cyclopenta[1,2-c]pyrazol-1-yl)-N—((S)-2-(3,5-difluorophenyl)-1-(6-(3-ethyl-3-hydroxypent-1-yn-1-yl)-3-(1-methyl-3-(methylsulfonamido)-1H-indazol-7-yl)pyridin-2-yl)ethyl)acetamide] | 97 | 97 | 6.96
11 | C[C@@H](O)C#Cc1ccc(-c2ccc(Cl)c3c(NS(C)(=O)=O)nn(C)c23)c([C@H](Cc2cc(F)cc(F)c2)NC(=O)Cn2nc(C(F)F)c3c2C(F)(F)[C@@H]2C[C@H]32)n1 [Compound 143, N—((S)-1-(3-(4-chloro-1-methyl-3-(methylsulfonamido)-1H-indazol-7-yl)-6-((R)-3-hydroxybut-1-yn-1-yl)pyridin-2-yl)-2-(3,5-difluorophenyl)ethyl)-2-((3b-S,4aR)-3-(difluoromethyl)-5,5-difluoro-3b,4,4a,5-tetrahydro-1H-cyclopropa[3,4]cyclopenta[1,2-c]pyrazol-1-yl)acetamide] | 98 | 98 | 11.3
12 | CC(=O)Nc1nn(CC(=O)N[C@@H](Cc2cc(F)cc(F)c2)c2nc(C#CC(C)(C)O)ccc2-c2ccc(Cl)c3c(NS(C)(=O)=O)nn(C)c23)c2c1[C@H]1C[C@H]1C2(F)F [Compound 163, 2-((3bS,4aR)-3-acetamido-5,5-difluoro-3b,4,4a,5-tetrahydro-1H-cyclopropa[3,4]cyclopenta[1,2-c]pyrazol-1-yl)-N—((S)-1-(3-(4-chloro-1-methyl-3-(methylsulfonamido)-1H-indazol-7-yl)-6-(3-hydroxy-3-methylbut-1-yn-1-yl)pyridin-2-yl)-2-(3,5-difluorophenyl)ethyl)acetamide] | 79 | 86 | 8.85
13 | COCC(C)(O)C#Cc1ccc(-c2ccc(Cl)c3c(NS(C)(=O)=O)nn(C)c23)c([C@H](Cc2cc(F)cc(F)c2)NC(=O)Cn2nc(C(F)(F)F)c3c2C(F)(F)[C@@H]2C[C@H]32)n1 (stereo partly drawn) [Compound 154, N-((1S)-1-(3-(4-chloro-1-methyl-3-(methylsulfonamido)-1H-indazol-7-yl)-6-(3-hydroxy-4-methoxy-3-methylbut-1-yn-1-yl)pyridin-2-yl)-2-(3,5-difluorophenyl)ethyl)-2-((3bS,4aR)-5,5-difluoro-3-(trifluoromethyl)-3b,4,4a,5-tetrahydro-1H-cyclopropa[3,4]cyclopenta[1,2-c]pyrazol-1-yl)acetamide] | 97 | 97 | 12.5
